Data taken from patent US20250025445A1, “METHOD OF CARDIOPROTECTION” (Race Oncology LTD., priority 2021, published 2025).

What was measured:
[1] = system: H929 multiple myeloma cells; test: H929 multiple myeloma cell viability (CellTiter-Glo); assay type: cell-based, human; details: 72 hours, FIG. 4
Method: Human multiple myeloma NCI-H929 cells were cultured using RPMI-1640 growth media (Sigma-Aldrich), supplemented with 2 mM L-glutamine (Thermo Fisher Scientific), 10% (v/v) foetal calf serum (Sigma-Aldrich) and 0.05 mM 2-mercaptoethanol (Sigma-Aldrich). Briefly, 0.5×10^6 H929 were seeded and grown in Corning® T75 flasks (Sigma-Aldrich) in an incubator at 37° C. under 5% CO2 conditions. At 80-90% confluency, the cell suspension was then collected into Corning® 50 mL centrifuge tubes (Sigma-Aldrich) and centrifuged at 300×g for 10 mins at room temperature. The resulting supernatant were discarded and H929 pellet was resuspended with 5-10 mL of pre-warmed H929 growth media. Total viable cells were enumerated with Invitrogen™ Countess Cell Counter (Thermo Fisher Scientific, New South Wales, Australia) and 1×10^4 live H929 were seeded in triplicate into Corning® 96-well white polystyrene microplate (Sigma). […] The concentrations were as follows 0 nM, 15.62 nM, 62.5 nM, 250 nM, 500 nM, 1 μM, 5 μM, and 10 μM. […] Vehicle controls were incubated with media supplemented with either sterile water or DMSO. […] This was repeated at 48 hours and 72 hours. […] Both FB23/2 and brequinar (MedChemExpress) were dissolved in dimethyl sulfoxide (DMSO; […]

[2] = system: tumor cells from 684 patients; details: breast, small cell lung, large cell lung, squamous cell lung, ovarian, pancreatic, renal, adrenal, head and neck, sarcoma, gastric, lymphoma and melanoma tumor cells; cited from earlier work

## C(=NNC1=NCCN1)c1c2ccccc2c(C=NNC2=NCCN2)c2ccccc12 [bisantrene, 9,10-anthracenedicarboxaldehyde bis [(4,5-dihydro-1H-imidazol-2-yl)hydrazone]]
[1]; 0-5 μM bisantrene alone
  toxicity to H929 multiple myeloma cells: concentration-dependent toxicity
[1]; 0-5 μM bisantrene with 1 μM carfilzomib
  interference with toxicity of carfilzomib to H929 cells: did not interfere with the toxicity
[2]
  activity in clonogenic assays: Activity in clonogenic assays from 684 patients was seen
